Values of other authors as cited in patent US20050158403A1, “Preparation of chinese herbal composite recipe used in horticulture” (priority 2004, published 2005).

What was measured:
Proteus = conditions: 1% matrine; in vitro
Shigella = conditions: 1% matrine; in vitro
B-streptococcus = conditions: 1% matrine; in vitro
E. Coli = conditions: 1% matrine; in vitro
Staphylococcus aureaus = conditions: 1% matrine; in vitro

O=C1CCC[C@@H]2[C@H]3CCCN4CCC[C@@H](CN12)[C@@H]34 [matrine]
bacteria inhibition effects (Proteus): bacteria inhibition effects | bacteria inhibition effects (Shigella): bacteria inhibition effects | bacteria inhibition effects (B-streptococcus): bacteria inhibition effects | bacteria inhibition effects (E. Coli): bacteria inhibition effects | bacteria inhibition effects (Staphylococcus aureaus): bacteria inhibition effects

CC[C@@H]1[C@H]2CCCCN3[C@H]2[C@H](C[C@H]3[C@@H]2C[C@H](C)C(=O)O2)[C@@H]2[C@H]1OC(=O)[C@H]2C [tuberostemonine]
effect on Ascarid (Ascarid): tuberostemonine can paralyze

discorea saponin
effect to bacteria (bacteria): but no effect to bacteria.
